The results in this text go back to article PMC11305387, “AlphaFold accelerated discovery of psychotropic agonists targeting the trace amine–associated receptor 1” (Science Advances, 2024).

The subject of one series is WT and TAAR1-KO mice. In words: Accelerating rotarod test. Type of series: in vivo. The conditions noted are these: 1 mg/kg i.p., 30 min after injection. The procedure:
To test compound 65 for sedative effects, mice were subjected to the accelerating rotarod test as previously described ([77]), with minor modifications. Mice were acclimatized to the rotarod (Ugo Basile, Gemonio, Italy) for 2 days before testing, starting at 4 rotations per minute (RPM) and accelerating to 40 RPM over 300 s. A baseline measure of performance, defined as the latency to fall from the rotarod with a cutoff time of 300 s, was taken before injection with either compound 65 (1 mg/kg), xylazine (5 mg/kg), or vehicle intraperitoneally. The mice were then retested 30 min after injection.

The next series concerns the target T1, D2 receptor (Homo sapiens, UniProt P14416).
T1 construct: TANGO fusion module (own knowledge, Kroeze et al.: C-terminal V2 tail, TEV site and tTA); 1000000068; host or cells: HTLA (HEK293-derived)
As to the kind of experiment: cell-based. Type of series: cell-based. The procedure:
(§1) Assessment of receptor activation by compounds at all human aminergic receptors were carried out using a modified version of the PRESTO-TANGO method. […] The plate was spun down, and 5 μl of a 1:25 dilution (in DPBS) of polyethylenimine (PEI) derivative (Transporter 5, Polysciences) was added (1:4 cDNA to PEI ratio) and incubated for 20 min at room temperature (RT). […] Luminescence signal was detected using a plate-reader (SPARK, Tecan) with 100-ms integration time and a 100-ms delay between well reads.

For series [1], the system named is TAAR1-WT and TAAR1-KO mice. As to the kind of experiment: Core-body temperature (CBT) measurement. Type of series: in vivo. The procedure: Core temperature was determined by a rectal thermoprobe. Compounds or vehicle was administered intraperitoneally. A basal measurement was performed immediately before injection. Measurements were repeated every 30 min for 2 hours. Mean changes in CBT were calculated by subtracting the value from vehicle treated group at the corresponding time point. A washout of 1 week between different doses of compound 65 was applied, and mice were injected starting with the lowest dose first.

Series [2] is described as follows: Caco-2 cells permeability assay. Type of series: in vitro ADME. The following applies: human. The procedure: Caco-2 cell monolayers (passages: 94 to 105) were grown on permeable filter support and used for transport study on day 21 after seeding. Before the experiment, a drug solution of 10 μM was prepared and warmed to 37°C. The Caco-2 filters were washed with pre-warmed HBSS before the experiment, and, thereafter, the experiment was started by applying the donor solution on the apical or basolateral side. The transport experiments were carried out at pH 7.4 in both the apical and basolateral chamber. The experiments were performed at 37°C and with a stirring rate of 500 rpm. The receiver compartment was sampled at 15, 30, and 60 min, and, at 60 min, also a final sample from the donor chamber was taken to calculate the mass balance of the compound. The samples (100 μl) were transferred to a 96-well plate containing 100 μl of methanol, and Warfarin as internal standard and was sealed until LC-MS/MS analysis.

The next series addresses T2, 5-HT1D receptor (Homo sapiens, UniProt P28221).
T2 construct: TANGO fusion module (own knowledge, Kroeze et al.: C-terminal V2 tail, TEV site and tTA); 1000000068; host or cells: HTLA (HEK293-derived)
As to the kind of experiment: PRESTO-TANGO β-arrestin recruitment. Type of series: cell-based. How it is done: as §1

A further series deals with T3, H1 receptor (Homo sapiens, UniProt P35367).
T3 construct: TANGO fusion module (own knowledge, Kroeze et al.: C-terminal V2 tail, TEV site and tTA); 1000000068; host or cells: HTLA (HEK293-derived)
T3 sequence (P35367 whole entry, the tested form may be a part): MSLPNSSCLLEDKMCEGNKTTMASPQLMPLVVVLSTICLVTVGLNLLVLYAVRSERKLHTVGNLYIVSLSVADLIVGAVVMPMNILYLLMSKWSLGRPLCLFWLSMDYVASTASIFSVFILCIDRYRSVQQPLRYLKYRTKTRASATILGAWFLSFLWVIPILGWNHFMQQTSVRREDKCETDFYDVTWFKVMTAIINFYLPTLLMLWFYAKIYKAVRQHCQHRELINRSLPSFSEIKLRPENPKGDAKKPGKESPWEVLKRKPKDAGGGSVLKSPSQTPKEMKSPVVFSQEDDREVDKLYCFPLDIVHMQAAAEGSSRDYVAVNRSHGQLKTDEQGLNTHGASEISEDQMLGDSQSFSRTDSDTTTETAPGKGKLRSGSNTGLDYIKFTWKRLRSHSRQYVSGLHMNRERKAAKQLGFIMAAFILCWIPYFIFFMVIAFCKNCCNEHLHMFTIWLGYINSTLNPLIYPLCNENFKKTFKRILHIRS
As to the kind of experiment: PRESTO-TANGO β-arrestin recruitment. Type of series: cell-based. The conditions noted are these: concentration-response curves (fig. S10).

Series [3] can be described thus: Metabolic stability in liver microsomes. The following applies: human liver microsomes, 1 μM.
Series [4] in a line: Plasma protein binding (rapid equilibrium dialysis). The following applies: pH 7.4. Type of series: in vitro ADME. The procedure: Pooled human plasma was provided by Uppsala Academic Hospital and was collected from two donors (nonsmoking) (citric acid). In brief, 0.2 ml of the plasma (50% plasma and 50% isotonic buffer) test solution (typically, 10 μM final compound concentration) was transferred to the membrane tube in the rapid equilibrium dialysis (RED) insert (Thermo Fisher Scientific). Isotonic phosphate buffer (0.35 ml; pH 7.4) was added to the other side of the membrane. The 96-well base plate was then sealed with an adhesive plastic film (Scotch Pad) to prevent evaporation. The sample was incubated with rapid rotation (>900 rpm) on a Kisker rotational incubator at 37°C for 4 hours to achieve equilibrium. A stability test of the test solution was prepared (to allow detection of drug degradation), and 100 μl of the plasma test solution (in a plastic vial or on a sealed plate) was incubated at 37°C for 4 hours (or as long as the dialysis time). The plasma test solution was frozen directly after the administration to prevent any degradation. Before LC-MS/MS analysis, the plasma and buffer samples were treated with the addition of methanol (1:3) containing Warfarin as internal standard to precipitate proteins. The standard curve was created using the plasma standard. The plate was then sealed and centrifuged, and the supernatant was analyzed by LC-MS/MS ([78]).

The nature of another series: Thermodynamic solubility. Type of series: physicochemical. The following applies: 100 mM potassium phosphate buffer, aqueous buffer, thermodynamic from solid, 100 mM KPO4-buffer pH 7.4, 37°C. The procedure: Thermodynamic solubility assay used solid form of compound 65. Solid test compound (~2 to 3 mg) was weighed in a glass high-performance liquid chromatography (HPLC) vial, and 100 mM KPO4-buffer (pH 7.4) was added to give a theoretical max concentration if everything is dissolved of ~5 to 6 mg/ml. The vial was incubated at 900 rpm and 37°C in a rotational shaker for 24 hours. After the incubation, an aliquot (200 μl) was transferred to a glass insert and centrifuged at 10,000g and 37°C for 20 min to separate any solid material from the solution. The supernatant was transferred to a new HPLC vial and analyzed by LC-MS/MS.

≈ marks a conversion by molar mass, not a printed value.

T1 sequence (P14416 whole entry, the tested form may be a part): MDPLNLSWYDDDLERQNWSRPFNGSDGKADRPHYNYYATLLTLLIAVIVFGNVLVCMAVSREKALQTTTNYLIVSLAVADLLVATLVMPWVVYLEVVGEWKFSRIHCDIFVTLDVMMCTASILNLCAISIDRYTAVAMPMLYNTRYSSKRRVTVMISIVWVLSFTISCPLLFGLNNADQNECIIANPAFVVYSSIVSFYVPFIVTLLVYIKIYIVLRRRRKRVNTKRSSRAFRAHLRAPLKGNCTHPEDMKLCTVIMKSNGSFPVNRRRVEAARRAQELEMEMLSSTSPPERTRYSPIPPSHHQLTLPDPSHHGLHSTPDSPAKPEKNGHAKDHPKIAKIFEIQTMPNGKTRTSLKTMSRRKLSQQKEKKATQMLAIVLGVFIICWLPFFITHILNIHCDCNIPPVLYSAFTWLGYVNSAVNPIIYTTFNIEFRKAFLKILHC
T2 sequence (P28221 whole entry, the tested form may be a part): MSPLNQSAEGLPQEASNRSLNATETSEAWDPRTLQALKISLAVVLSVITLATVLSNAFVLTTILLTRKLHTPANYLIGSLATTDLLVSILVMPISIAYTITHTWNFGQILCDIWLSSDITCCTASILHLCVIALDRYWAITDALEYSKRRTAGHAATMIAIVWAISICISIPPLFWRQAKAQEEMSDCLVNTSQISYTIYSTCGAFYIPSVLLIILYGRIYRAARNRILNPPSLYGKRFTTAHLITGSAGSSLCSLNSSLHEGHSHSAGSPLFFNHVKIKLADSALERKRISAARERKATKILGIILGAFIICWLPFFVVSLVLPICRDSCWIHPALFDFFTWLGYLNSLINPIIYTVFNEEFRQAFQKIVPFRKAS

`CC1=C(c2ccco2)CNCC1` [Compound 65]: in the series on WT and TAAR1-KO mice, the “effect on rotarod performance (sedation)” value is recorded as “did not influence rotarod performance”. Further, the EC50 at D2 receptor (concentration-response curves) and on 5-HT1D receptor was greater than 1000 nM throughout. Further, the Emax turned out to be 59% on D2 receptor (concentration-response curves) and 75% at 5-HT1D receptor. Also, the “agonism at the D2 receptor” value at D2 receptor (panel screen) was “agonism”. The “effect on CBT” value was “no decrease in CBT was observed” in series [1] (TAAR1-KO mice); “reduction of CBT” in series [1] (TAAR1-WT mice, 0.5 and 1 mg/kg i.p.). Moreover, the “maximal reduction of CBT, 5 mg/kg versus 1 mg/kg” value in series [1] (TAAR1-WT mice) is listed as “did not observe a significant increase in the maximal reduction of CBT”. For the same compound, in series [1] (TAAR1-WT mice, 0.5 and 1 mg/kg), the “time of peak CBT reduction after injection” value is reported as 30 min. Also, the “time to return of CBT to baseline” value in series [1] (TAAR1-WT mice, 0.5 and 1 mg/kg) came to 2 h. Besides, the “extent of CBT reduction” value in series [1] (WT mice, 1 mg/kg, 30 and 60 min after injection) was ~ 1 °C. The efflux ratio at 60 min, 10 μM in [2] came to 2.2. In addition, the Papp A→B at 60 min, 10 μM in series [2] (apical-to-basal, 10 μM, pH 7.4) amounted to 77 ×10⁻⁶ cm/s. The compound also had a basolateral-to-apical permeability (Papp B→A) at 60 min, 10 μM in series [2] (basal-to-apical, 10 μM, pH 7.4) of 168 ×10⁻⁶ cm/s. At 5-HT1D receptor (panel screen), the “agonism at the 5-HT1D receptor” value is listed as “agonism”. At H1 receptor, the “agonism at the H1 receptor” value is “lacked agonism”. For the same compound, the “intrinsic clearance CLint” value in [3] amounted to 16 μl/min per mg. The free fraction (fraction unbound) at 4 h, 10 μM in [4] (human, pooled human plasma (50% plasma and 50% isotonic buffer)) is 0.61; in series [4] (mouse, mouse plasma (50% plasma and 50% isotonic buffer)) it was 0.81. In “Thermodynamic solubility”, this compound gave a solubility at 24 h of 50 mM (≈ 8160 µg/mL).
